Data as given in PubChem BioAssay (NCI).
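Growth conditions: 96-well plates. Treatment: test compound, 48 hours, 5 concentrations. Analysis: linear interpolation between bracketing concentrations; unreached endpoints set to highest concentration. TGI marks complete inhibition of growth.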

Legend:
Test in all cases: growth of human tumour cells (NCI), 48 h
SNB-75 CNS = tested on: SNB-75 CNS
SK-OV-3 ovarian = tested on: SK-OV-3 ovarian
SW-620 colon = tested on: SW-620 colon
SN12C renal = tested on: SN12C renal
MCF7 breast = tested on: MCF7 breast
786-0 renal = tested on: 786-0 renal
HL-60(TB) leukemia = tested on: HL-60(TB) leukemia
IGROV1 ovarian = tested on: IGROV1 ovarian
UACC-62 melanoma = tested on: UACC-62 melanoma
A498 renal = tested on: A498 renal
ACHN renal = tested on: ACHN renal
HCT-116 colon = tested on: HCT-116 colon
PC-3 prostate = tested on: PC-3 prostate
LOX IMVI melanoma = tested on: LOX IMVI melanoma
EKVX NSCLC = tested on: EKVX NSCLC
RXF 393 renal = tested on: RXF 393 renal
OVCAR-5 ovarian = tested on: OVCAR-5 ovarian
DU-145 prostate = tested on: DU-145 prostate
SF-268 CNS = tested on: SF-268 CNS
MOLT-4 leukemia = tested on: MOLT-4 leukemia
U251 CNS = tested on: U251 CNS
HCT-15 colon = tested on: HCT-15 colon
HOP-62 NSCLC = tested on: HOP-62 NSCLC
MDA-MB-231 breast = tested on: MDA-MB-231 breast
NCI-H226 lung = tested on: NCI-H226 lung
CCRF-CEM leukemia = tested on: CCRF-CEM leukemia
RPMI-8226 leukemia = tested on: RPMI-8226 leukemia
NCI/ADR-RES ovarian = tested on: NCI/ADR-RES ovarian
OVCAR-3 ovarian = tested on: OVCAR-3 ovarian
SK-MEL-2 melanoma = tested on: SK-MEL-2 melanoma
NCI-H460 lung = tested on: NCI-H460 lung
SR leukemia = tested on: SR leukemia
COLO 205 colon = tested on: COLO 205 colon
SK-MEL-28 melanoma = tested on: SK-MEL-28 melanoma
UACC-257 melanoma = tested on: UACC-257 melanoma
HT29 colon = tested on: HT29 colon
M14 melanoma = tested on: M14 melanoma
OVCAR-8 ovarian = tested on: OVCAR-8 ovarian
HS 578T breast = tested on: HS 578T breast
NCI-H23 lung = tested on: NCI-H23 lung
MDA-MB-435 = tested on: MDA-MB-435
CAKI-1 renal = tested on: CAKI-1 renal
BT-549 breast = tested on: BT-549 breast
TK-10 renal = tested on: TK-10 renal
KM12 colon = tested on: KM12 colon
MDA-N = tested on: MDA-N
SF-539 CNS = tested on: SF-539 CNS
K-562 leukemia = tested on: K-562 leukemia
SF-295 CNS = tested on: SF-295 CNS
A549 NSCLC = tested on: A549 NSCLC
SK-MEL-5 melanoma = tested on: SK-MEL-5 melanoma
HOP-92 NSCLC = tested on: HOP-92 NSCLC
SNB-19 CNS = tested on: SNB-19 CNS
UO-31 renal = tested on: UO-31 renal
HCC-2998 colon = tested on: HCC-2998 colon
NCI-H522 lung = tested on: NCI-H522 lung
MALME-3M melanoma = tested on: MALME-3M melanoma
OVCAR-4 ovarian = tested on: OVCAR-4 ovarian

In the case of O=C(Cc1ccccc1)c1ccc2[nH]c(=O)oc2c1, the TGI (SNB-75 CNS) is reported as 33.4 µM, the TGI (SK-OV-3 ovarian) is reported as greater than 100 µM and the TGI (SW-620 colon) is reported as greater than 100 µM. For the same molecule, the TGI (SN12C renal) was greater than 100 µM, the TGI (MCF7 breast) was greater than 100 µM and the TGI (786-0 renal) was greater than 100 µM. For the same molecule, the TGI (HL-60(TB) leukemia) was greater than 100 µM, the TGI (IGROV1 ovarian) was greater than 100 µM and the TGI (UACC-62 melanoma) was greater than 100 µM. For the same molecule, the TGI (A498 renal) was greater than 100 µM, the TGI (ACHN renal) was greater than 100 µM and the TGI (HCT-116 colon) was greater than 100 µM. It also gave a TGI (PC-3 prostate) greater than 100 µM, a TGI (LOX IMVI melanoma) greater than 100 µM and a TGI (EKVX NSCLC) of 64.4 µM. It also gave a TGI (RXF 393 renal) greater than 100 µM, a TGI (OVCAR-5 ovarian) greater than 100 µM and a TGI (DU-145 prostate) greater than 100 µM. For the same molecule, the TGI (SF-268 CNS) was greater than 100 µM, the TGI (MOLT-4 leukemia) was greater than 100 µM and the TGI (U251 CNS) was 62.3 µM. The TGI (HCT-15 colon) was greater than 100 µM, the TGI (HOP-62 NSCLC) was greater than 100 µM and the TGI (MDA-MB-231 breast) was greater than 100 µM. It also gave a TGI (NCI-H226 lung) of 63.2 µM, a TGI (CCRF-CEM leukemia) greater than 100 µM and a TGI (RPMI-8226 leukemia) of 64.4 µM. The TGI (NCI/ADR-RES ovarian) was 79 µM, the TGI (OVCAR-3 ovarian) was greater than 100 µM and the TGI (SK-MEL-2 melanoma) was greater than 100 µM. It also gave a TGI (NCI-H460 lung) greater than 100 µM, a TGI (SR leukemia) greater than 100 µM and a TGI (COLO 205 colon) greater than 100 µM. It also gave a TGI (SK-MEL-28 melanoma) greater than 100 µM, a TGI (UACC-257 melanoma) greater than 100 µM and a TGI (HT29 colon) greater than 100 µM. For the same molecule, the TGI (M14 melanoma) was greater than 100 µM, the TGI (OVCAR-8 ovarian) was greater than 100 µM and the TGI (HS 578T breast) was 22.9 µM. It also gave a TGI (NCI-H23 lung) greater than 100 µM, a TGI (MDA-MB-435) greater than 100 µM and a TGI (CAKI-1 renal) greater than 100 µM. For the same molecule, the TGI (BT-549 breast) was greater than 100 µM, the TGI (TK-10 renal) was greater than 100 µM and the TGI (KM12 colon) was greater than 100 µM. For the same molecule, the TGI (MDA-N) was greater than 100 µM, the TGI (SF-539 CNS) was greater than 100 µM and the TGI (K-562 leukemia) was greater than 100 µM. The TGI (SF-295 CNS) was greater than 100 µM.
For C[C@]12CC(c3ccccc3O1)C(C(=O)NC13CC4CC(CC(C4)C1)C3)C(=O)N2 (stereo partly drawn), the TGI (A549 NSCLC) was 71.7 µM, the TGI (SNB-75 CNS) was 74 µM and the TGI (SK-OV-3 ovarian) was greater than 100 µM. It also gave a TGI (SW-620 colon) greater than 100 µM, a TGI (MCF7 breast) greater than 100 µM and a TGI (786-0 renal) of 40.8 µM. The TGI (IGROV1 ovarian) was greater than 100 µM, the TGI (SK-MEL-5 melanoma) was 33.3 µM and the TGI (UACC-62 melanoma) was greater than 100 µM. It also gave a TGI (A498 renal) greater than 100 µM, a TGI (ACHN renal) greater than 100 µM and a TGI (HCT-116 colon) of 41 µM. It also gave a TGI (PC-3 prostate) greater than 100 µM, a TGI (LOX IMVI melanoma) of 57.9 µM and a TGI (EKVX NSCLC) of 19.3 µM. The TGI (RXF 393 renal) was 57.6 µM, the TGI (HOP-92 NSCLC) was 55.8 µM and the TGI (OVCAR-5 ovarian) was 52.7 µM. It also gave a TGI (DU-145 prostate) greater than 100 µM, a TGI (SF-268 CNS) of 96 µM and a TGI (MOLT-4 leukemia) of 36.7 µM. The TGI (U251 CNS) was greater than 100 µM, the TGI (HCT-15 colon) was 60.8 µM and the TGI (HOP-62 NSCLC) was greater than 100 µM. The TGI (MDA-MB-231 breast) was greater than 100 µM, the TGI (NCI-H226 lung) was 71.3 µM and the TGI (CCRF-CEM leukemia) was 61.1 µM. For the same molecule, the TGI (RPMI-8226 leukemia) was 31.3 µM, the TGI (NCI/ADR-RES ovarian) was 55.6 µM and the TGI (OVCAR-3 ovarian) was greater than 100 µM. It also gave a TGI (SK-MEL-2 melanoma) of 43 µM, a TGI (NCI-H460 lung) greater than 100 µM and a TGI (COLO 205 colon) of 31.7 µM. It also gave a TGI (SK-MEL-28 melanoma) of 64 µM, a TGI (SNB-19 CNS) greater than 100 µM and a TGI (UACC-257 melanoma) greater than 100 µM. The TGI (HT29 colon) was 30.8 µM, the TGI (M14 melanoma) was 35.9 µM and the TGI (OVCAR-8 ovarian) was 93.2 µM. It also gave a TGI (HS 578T breast) greater than 100 µM, a TGI (UO-31 renal) of 44.3 µM and a TGI (HCC-2998 colon) greater than 100 µM. It also gave a TGI (NCI-H23 lung) of 61.9 µM, a TGI (MDA-MB-435) of 65.1 µM and a TGI (CAKI-1 renal) greater than 100 µM. It also gave a TGI (BT-549 breast) of 61.8 µM, a TGI (TK-10 renal) greater than 100 µM and a TGI (NCI-H522 lung) greater than 100 µM. It also gave a TGI (KM12 colon) greater than 100 µM, a TGI (MDA-N) of 43.8 µM and a TGI (K-562 leukemia) of 30.4 µM. It also gave a TGI (SF-295 CNS) greater than 100 µM, a TGI (MALME-3M melanoma) greater than 100 µM and a TGI (OVCAR-4 ovarian) greater than 100 µM.
